Columns and labels:
[1] = test system: Plasmodium falciparum; experiment: Antiplasmodial activity against chloroquine-sensitive Plasmodium falciparum 3D7 infected in human erythrocytes after 72 hrs by SYBR Green 1 staining based fluorescence assay; type: functional, organism-based; settings: 3D7, 72 h
[2] = Selectivity index, ratio of CC50 for African green monkey Vero cells to IC50 for chloroquine-sensitive Plasmodium falciparum 3D7 infected in human erythrocytes; type: toxicity, cell-based; settings: read-out: Ratio CC50/IC50
[3] = Cytotoxicity against African green monkey Vero cells after 3 days by resazurin dye based fluorescence assay; type: cell-based; settings: chlorocebus sabaeus
[4] = test system: Plasmodium falciparum; experiment: Antiplasmodial activity against chloroquine-resistant Plasmodium falciparum K1 infected in human erythrocytes after 72 hrs by SYBR Green 1 staining based fluorescence assay; type: functional, organism-based; settings: K1, 72 h
[5] = Selectivity index, ratio of CC50 for African green monkey Vero cells to IC50 for chloroquine-resistant Plasmodium falciparum K1 infected in human erythrocytes; type: toxicity, cell-based; settings: read-out: Ratio CC50/IC50

CC1(C)O[C@H]2[C@@H](O1)[C@@H](Cn1cc(CN3C(=O)/C(=N\Nc4ccc(C#N)cc4)c4ccccc43)nn1)O[C@@H]1OC(C)(C)O[C@@H]12
IC50 [1]: 3.59 µM
selectivity ratio [2]: 34.9
CC50 at 72 h [3]: 126 µM
IC50 [4]: 2.77 µM

COc1ccc(N/N=C2\C(=O)N(Cc3cn(C[C@H]4O[C@@H]5OC(C)(C)O[C@@H]5[C@H]5OC(C)(C)O[C@H]54)nn3)c3ccccc32)cc1
IC50 [1]: 1.64 µM
selectivity ratio [2]: 64.2
CC50 at 72 h [3]: 105 µM
selectivity ratio [5]: 46
IC50 [4]: 2.29 µM

CC(=O)C[C@H]1O[C@@H](On2cc(CN3C(=O)/C(=N\Nc4ccc(C#N)cc4)c4ccccc43)nn2)[C@H](OC(C)=O)[C@@H](OC(C)=O)[C@H]1OC(C)=O
IC50 [1]: 3.67 µM
selectivity ratio [2]: 20.6
CC50 at 72 h [3]: 75.5 µM
selectivity ratio [5]: 17.6
IC50 [4]: 4.28 µM

CC1(C)O[C@H]2O[C@H](Cn3cc(CN4C(=O)/C(=N\Nc5ccc(F)cc5)c5ccccc54)nn3)[C@H](O)[C@H]2O1
IC50 [1]: 3.08 µM
selectivity ratio [2]: 21.2
CC50 at 72 h [3]: 83.8 µM
selectivity ratio [5]: 21
IC50 [4]: 3.99 µM

O=C1/C(=N\Nc2ccccc2)c2ccccc2N1Cc1cn(O[C@@H]2O[C@H](CO)[C@H](O)[C@H](O)[C@H]2O)nn1
IC50 [1]: 4.8 µM
selectivity ratio [2]: 17.4
CC50 at 72 h [3]: 83.4 µM
selectivity ratio [5]: 9.6
IC50 [4]: 8.68 µM

CC(=O)C[C@H]1O[C@@H](On2cc(CN3C(=O)/C(=N\Nc4ccccc4)c4ccccc43)nn2)[C@H](OC(C)=O)[C@@H](OC(C)=O)[C@H]1OC(C)=O
IC50 [1]: 3.5 µM
selectivity ratio [2]: 18.6
CC50 at 72 h [3]: 65.2 µM
selectivity ratio [5]: 15.8
IC50 [4]: 4.13 µM

O=C1/C(=N\Nc2ccc(F)cc2)c2ccccc2N1Cc1cn(O[C@@H]2O[C@H](CO)[C@H](O)[C@H](O)[C@H]2O)nn1
IC50 [1]: 6.64 µM
selectivity ratio [2]: 13.9
CC50 at 72 h [3]: 92.1 µM
selectivity ratio [5]: 28.5
IC50 [4]: 3.23 µM

O=C1/C(=N\Nc2ccccc2)c2ccccc2N1Cc1cn(O[C@@H]2O[C@H](CO)[C@@H](O)[C@H](O)[C@H]2O)nn1
IC50 [1]: 4.7 µM
selectivity ratio [2]: 18.8
CC50 at 72 h [3]: 88.5 µM
selectivity ratio [5]: 10.9
IC50 [4]: 8.11 µM

CC(=O)C[C@H]1O[C@@H](On2cc(CN3C(=O)C(=O)c4ccccc43)nn2)[C@H](OC(C)=O)[C@@H](OC(C)=O)[C@H]1OC(C)=O
IC50 [1]: 8.4 µM
IC50 [4]: 8.07 µM

COc1ccc(N/N=C2\C(=O)N(Cc3cn(O[C@@H]4O[C@H](CC(C)=O)[C@H](OC(C)=O)[C@H](OC(C)=O)[C@H]4OC(C)=O)nn3)c3ccccc32)cc1
IC50 [1]: 1.27 µM
selectivity ratio [2]: 49.2
CC50 at 72 h [3]: 62.5 µM
selectivity ratio [5]: 20
IC50 [4]: 3.12 µM

CC(=O)C[C@H]1O[C@@H](On2cc(CN3C(=O)/C(=N\Nc4cccc(Cl)c4)c4ccccc43)nn2)[C@H](OC(C)=O)[C@@H](OC(C)=O)[C@H]1OC(C)=O
IC50 [1]: 2.47 µM
selectivity ratio [2]: 35.6
CC50 at 72 h [3]: 87.9 µM
selectivity ratio [5]: 45.5
IC50 [4]: 1.93 µM

N#Cc1ccc(N/N=C2\C(=O)N(Cc3cn(O[C@@H]4O[C@H](CO)[C@H](O)[C@H](O)[C@H]4O)nn3)c3ccccc32)cc1
IC50 [1]: 7.65 µM
selectivity ratio [2]: 12.2
CC50 at 72 h [3]: 93.7 µM
selectivity ratio [5]: 28.4
IC50 [4]: 3.3 µM

O=C1/C(=N\Nc2cccc(Cl)c2)c2ccccc2N1Cc1cn(O[C@@H]2O[C@H](CO)[C@@H](O)[C@H](O)[C@H]2O)nn1
IC50 [1]: 6.73 µM
IC50 [4]: 7.62 µM

CC(=O)C[C@H]1O[C@@H](On2cc(CN3C(=O)/C(=N\Nc4cccc(Cl)c4)c4ccccc43)nn2)[C@H](OC(C)=O)[C@@H](OC(C)=O)[C@@H]1OC(C)=O
IC50 [1]: 3.96 µM
selectivity ratio [2]: 29.4
CC50 at 72 h [3]: 117 µM
selectivity ratio [5]: 13.4
IC50 [4]: 8.67 µM

CC1(C)O[C@H]2O[C@H](Cn3cc(CN4C(=O)/C(=N\Nc5cccc(Cl)c5)c5ccccc54)nn3)[C@H](O)[C@H]2O1
IC50 [1]: 4.47 µM
selectivity ratio [2]: 15.7
CC50 at 72 h [3]: 70 µM
selectivity ratio [5]: 20.5
IC50 [4]: 3.42 µM

COc1ccc(N/N=C2\C(=O)N(Cc3cn(O[C@@H]4O[C@H](CO)[C@H](O)[C@H](O)[C@H]4O)nn3)c3ccccc32)cc1
IC50 [1]: 3.46 µM
selectivity ratio [2]: 22
CC50 at 72 h [3]: 76.2 µM
selectivity ratio [5]: 14.7
IC50 [4]: 5.2 µM

COc1ccc(N/N=C2\C(=O)N(Cc3cn(C[C@H]4O[C@@H]5OC(C)(C)O[C@@H]5[C@H]4O)nn3)c3ccccc32)cc1
IC50 [1]: 3.8 µM
selectivity ratio [2]: 19.6
CC50 at 72 h [3]: 74.5 µM
selectivity ratio [5]: 22.7
IC50 [4]: 3.28 µM

CC(=O)C[C@H]1O[C@@H](On2cc(CN3C(=O)/C(=N\Nc4ccc(F)cc4)c4ccccc43)nn2)[C@H](OC(C)=O)[C@@H](OC(C)=O)[C@H]1OC(C)=O
IC50 [1]: 2.44 µM
selectivity ratio [2]: 32.2
CC50 at 72 h [3]: 78.6 µM
selectivity ratio [5]: 26.2
IC50 [4]: 3 µM

CC1(C)O[C@H]2[C@@H](O1)[C@@H](Cn1cc(CN3C(=O)/C(=N\Nc4ccccc4)c4ccccc43)nn1)O[C@@H]1OC(C)(C)O[C@@H]12
IC50 [1]: 3.87 µM
selectivity ratio [2]: 27.2
CC50 at 72 h [3]: 105 µM
selectivity ratio [5]: 40.2
IC50 [4]: 2.62 µM

N#Cc1ccc(N/N=C2\C(=O)N(Cc3cn(O[C@@H]4O[C@H](CO)[C@@H](O)[C@H](O)[C@H]4O)nn3)c3ccccc32)cc1
IC50 [1]: 7.78 µM
IC50 [4]: 7.01 µM

CCN(CC)CCCC(C)Nc1ccnc2cc(Cl)ccc12 (configuration not stated) [CHLOROQUINE]
CC50 at 72 h [3]: > 500 µM

CC1(C)O[C@H]2[C@@H](O1)[C@@H](Cn1cc(CN3C(=O)/C(=N\Nc4ccc(Br)cc4)c4ccccc43)nn1)O[C@@H]1OC(C)(C)O[C@@H]12
IC50 [1]: 1.96 µM
selectivity ratio [2]: 60.7
CC50 at 72 h [3]: 119 µM
selectivity ratio [5]: 73.9
IC50 [4]: 1.61 µM

CC(=O)C[C@H]1O[C@@H](On2cc(CN3C(=O)/C(=N\Nc4ccc(C#N)cc4)c4ccccc43)nn2)[C@H](OC(C)=O)[C@@H](OC(C)=O)[C@@H]1OC(C)=O
IC50 [1]: 3.33 µM
selectivity ratio [2]: 22.6
CC50 at 72 h [3]: 75.4 µM
selectivity ratio [5]: 13.2
IC50 [4]: 5.72 µM

CC(=O)C[C@H]1O[C@@H](On2cc(CN3C(=O)/C(=N\Nc4ccc(Br)cc4)c4ccccc43)nn2)[C@H](OC(C)=O)[C@@H](OC(C)=O)[C@@H]1OC(C)=O
IC50 [1]: 3.79 µM
selectivity ratio [2]: 30.7
CC50 at 72 h [3]: 116 µM
selectivity ratio [5]: 30.3
IC50 [4]: 3.84 µM

CC1(C)O[C@H]2[C@@H](O1)[C@@H](Cn1cc(CN3C(=O)/C(=N\Nc4ccc(F)cc4)c4ccccc43)nn1)O[C@@H]1OC(C)(C)O[C@@H]12
IC50 [1]: 3.07 µM
selectivity ratio [2]: 39.9
CC50 at 72 h [3]: 122 µM
selectivity ratio [5]: 46.4
IC50 [4]: 2.64 µM

O=C1/C(=N\Nc2ccc(Br)cc2)c2ccccc2N1Cc1cn(O[C@@H]2O[C@H](CO)[C@@H](O)[C@H](O)[C@H]2O)nn1
IC50 [1]: 9.34 µM
IC50 [4]: 7.95 µM

O=C1/C(=N\Nc2ccc(F)cc2)c2ccccc2N1Cc1cn(O[C@@H]2O[C@H](CO)[C@@H](O)[C@H](O)[C@H]2O)nn1
IC50 [1]: 8 µM
IC50 [4]: 8.53 µM

CC1(C)O[C@H]2[C@@H](O1)[C@@H](Cn1cc(CN3C(=O)C(=O)c4ccccc43)nn1)O[C@@H]1OC(C)(C)O[C@@H]12
IC50 [1]: 8.41 µM
IC50 [4]: 7.51 µM

From ChEMBL document CHEMBL4152321, “Synthesis and antiplasmodial activity of glyco-conjugate hybrids of phenylhydrazono-indolinones and glycosylated 1,2,3-triazolyl-methyl-indoline-2,3-diones” (Eur J Med Chem, 2018)
